# Legend:
# human recombinant bFGF = human recombinant bFGF (Homo sapiens, UniProt P09038); test: UC-PBA assay: binding of RO-12 UC cells to bFGF coated micro-titer wells; format: cell-based; details: for bFGF binding activity in the UC-PBA assay: heparin as positive control
# Procedure: The effect of compositions 26 on the binding of RO-12 UC cells to bFGF coated micro-titer wells was determined as described by Ishihara, M., et al., Anal Biochem (1992) 202:310-315. (Also see U.S. Pat. No. 5,296,471, issued Mar. 22, 1994). Bound cells are readily quantitated as total protein.
# The assay was run as follows: Fifty microliters of 10 μg/ml human recombinant bFGF was added to wells of a 96-well tissue culture plate and incubated overnight at 4° C. The wells were aspirated with PBS to remove any unbound bFGF, rinsed twice with PBS, and subsequently incubated with PBS containing 5% (v/v) fetal bovine serum for 1 hour at room temperature. RO-12 UC cells were suspended at a density of 3×10^6 cells/ml in PBS containing 5% fetal bovine serum. To this mixture was added the desired amount of sulfated composition, or heparin. They were made up in PBS plus 2.5% fetal bovine serum. A control was also run, containing only PBS plus 2.5% fetal bovine serum. Next, 100 μl of the cell suspension was immediately added to the microtiter wells, and incubated for 5 minutes, after which the wells were washed 3 times with PBS. Finally, the amount of cell protein bound to the wells was determined by dissolving the bound cells in 20 μl of 5% SDS and measuring the protein concentration of the cell lysates. BSA was used as the standard.
# (§1) The APTT values of composition 26 were determined as described in U.S. Pat. No. 5,296,471. Table 3 lists the results for the UC-PBA assay, the ACE cell growth inhibition assay, and the APTT values respectively.
# APTT = test: APTT
# Procedure: as §1
# β-glucuronidase = test: β-Glucuronidase inhibition assay (Sigma kit 325-A, phenolphthalein glucuronic acid substrate); format: biochemical; details: 15 μl of 50 mM 9β; for A550 value (β-glucuronidase assay): 550 nm, pH 4.5
# Procedure: The β-glucuronidase inhibition assay is preferably performed in a solvent. Examples of the solvent include water and a suitable buffer, preferably an acetate or an AMP (2-amino-2-methyl-1-propanol) buffer. Phenolphthalein mono-β-glucuronic acid and a saccharopeptide substrate are treated with the enzyme at room temperature, at a pH of about 4-5. The reaction period ranges from 0.5-2 hours. After completion of the reaction, the enzymic reaction is stopped by adjusting the pH and the absorbance is measured at 550 nm.
# Composition 9β was used to measure the β-glucuronidase activity, and the measurement was performed in the same manner as that of the conventional method.
# The procedure was carried out according to instructions provided in the Sigma kit 325-A. The reagents used were provided in the kit and the proportions of the reagents used is described in the table below:
# ______________________________________
# *0.2M sodium acetate buffer, pH 4.5 at 25° C.;
# ^# 30 mM phenolphthalein glucuronic acid (PGA), pH 4.5 at 25°
# All components, except PGA, were pre-incubated at room temperature for 30 min, PGA was then added to the mixture. At various time points (0.5, 1 and 2h), 2 μl aliquots were removed and added to 1 ml assay diluent, mixed and absorbance read at 550 nm against the blank (A550). The assay diluent is a mixture of acetate buffer (1.44 ml), water (0.96 ml) and AMP (2-amino-2-methyl-1-propanol) buffer (12 ml, 0.1M AMP, pH 11, containing 0.2% sodium lauryl sulfate).
# human recombinant bFGF, sequence (P09038 134-288): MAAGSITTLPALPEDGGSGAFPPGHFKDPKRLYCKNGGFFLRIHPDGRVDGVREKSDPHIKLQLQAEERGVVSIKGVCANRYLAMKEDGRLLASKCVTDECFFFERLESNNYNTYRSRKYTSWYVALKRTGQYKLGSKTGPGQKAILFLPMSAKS
Compound,bFGF binding activity in the UC-PBA assay (human recombinant bFGF),"APTT value (APTT; as described in U.S. Pat. No. 5,296,471) [%]","APTT value, comparison in words (APTT; versus other compounds of similar size)","IC50 (human recombinant bFGF; RO-12 UC cells, bFGF coated wells) [nM]",reduction of β-glucuronidase activity (β-glucuronidase),"A550 value (β-glucuronidase assay) (β-glucuronidase; 0.5 h, room temperature (control 0.104))","A550 value (β-glucuronidase assay) (β-glucuronidase; 1.0 h, room temperature (control 0.199))","A550 value (β-glucuronidase assay) (β-glucuronidase; 2.0 h, room temperature (control 0.396))"
Heparin [reference compound],inhibits RO-12 UC cell binding,,,,,,,
O=C(CCC(=O)N[C@@H]1O[C@H](COS(=O)(=O)O)[C@@H](O[C@H]2O[C@H](COS(=O)(=O)O)[C@@H](O[C@H]3O[C@H](COS(=O)(=O)O)[C@@H](OS(=O)(=O)O)[C@H](OS(=O)(=O)O)[C@H]3OS(=O)(=O)O)[C@H](OS(=O)(=O)O)[C@H]2OS(=O)(=O)O)[C@H](OS(=O)(=O)O)[C@H]1OS(=O)(=O)O)N[C@@H]1O[C@H](COS(=O)(=O)O)[C@@H](O[C@H]2O[C@H](COS(=O)(=O)O)[C@@H](O[C@H]3O[C@H](COS(=O)(=O)O)[C@@H](OS(=O)(=O)O)[C@H](OS(=O)(=O)O)[C@H]3OS(=O)(=O)O)[C@H](OS(=O)(=O)O)[C@H]2OS(=O)(=O)O)[C@H](OS(=O)(=O)O)[C@H]1OS(=O)(=O)O [Composition 26],comparable to heparin,14.2,significantly lower than that of other compounds of similar size,372,,,,
"[N-]=[N+]=N[C@@H]1O[C@H](C(=O)N[C@@H]2O[C@H](C(=O)O)[C@@H](O)[C@H](O)[C@H]2O)[C@@H](O)[C@H](O)[C@H]1O [Composition 9β, N-(β-D-glucopyran-1-osyluronic acid)-1-azido-1-deoxy-β-D-glucopyranuronamide]",,,,,about 85%,0.014,0.030,0.059

# Source: US5849709A, “Saccharopeptides and derivatives thereof” (Glycomed Incorporated, priority 1995, dated 1998)
